The subject of data set [1] is Mycobacterium tuberculosis. In words: MMV: Screen against Mtb, single point, non replicating, at 25uM. Format: functional.
Data set [2] relates to Mycobacterium tuberculosis. Nature of the data set: MMV: Screen against Mtb, single point, replicating, at 25uM. Format: functional.
In data set [3] the test system is Mycobacterium tuberculosis. Nature of the data set: MMV: CRC and MIC90 against Mtb (non replicating). Format: functional.
Data set [4] concerns Mycobacterium tuberculosis. Nature of the data set: MMV: CRC and MIC90 against Mtb (replicating). Format: functional.
A short description of data set [5]: MMV: Cytotoxicity CRC and LD50 against HepG2. Format: toxicity, cell-based. Particulars: human, HepG2 cells; read-out: LD50 (the source's name).

SMILES strings stand for the structures. In brackets after ≈: the same amount, converted by molar mass. A value given as a limit tells only on which side of the number the result lay.

A word on the inhibition: it is the relative decrease from the control value, in per cent. As usually defined, the MIC90 is the lowest concentration that inhibits either 90% of growth or 90% of the strains tested, depending on the study. Low values mean greater potency, high ones weaker potency.

Take `COc1ccc(C2c3ccc4ccccc4c3Oc3ncn(CCCN(C)C)c(=N)c32)cc1` (stereo not given): the inhibition at 25 µM in data set [1] is 47.1%; in data set [2], 98.1%. The results for the MIC90 in data set [3] and in data set [4] were > 100 µM and 16.9 µM (≈ 7.45 µg/mL), respectively. Moreover, in data set [5], the CC50 turned out to be 1.53 µM.
Take `N=c1n(CCN2CCCCC2)c2ccccc2n1CC(=O)c1ccc(Cl)c(Cl)c1`: the inhibition at 25 µM in data set [1] was determined as 17.6%; in data set [2], 96.3%. The MIC90 in data set [3] was > 100 µM; in data set [4], 21.1 µM (≈ 9.1 µg/mL). Further, the CC50 in data set [5] came out at 6.5 µM.
With `Cc1cc(N2CCCC2)nc(Nc2ccc(NC(=O)CCc3ccccc3)cc2)n1`, the inhibition at 25 µM in data set [1] was 9.94%; in data set [2] it was 82.1%. Also, the results for the MIC90 in data set [3] and in data set [4] were > 100 µM and 14 µM (≈ 5.62 µg/mL), respectively. In data set [5], the CC50 was 2.64 µM.
The matching figures for `FC(F)(F)c1cccc(Nc2nc3ccccc3nc2Nc2cccc(C(F)(F)F)c2)c1`: 102%, 97.6%, 5.75 µM (≈ 2.58 µg/mL), 3.33 µM (≈ 1.49 µg/mL) and 1.59 µM.
The matching figures for `CC(=O)c1ccc(NC(=O)CSc2nc(-c3ccccc3Cl)ns2)cc1`: 13.4%, 96.2%, > 100 µM, 14 µM (≈ 5.65 µg/mL) and 41 µM.
On the same counts, the results for `Brc1ccc(Nc2nc3ccccc3nc2Nc2ccc(Br)cc2)cc1` are 100%, 101%, 11.5 µM (≈ 5.41 µg/mL), 3.73 µM (≈ 1.75 µg/mL) and 2.69 µM.
As for `Nc1ccc(-c2nc3cc(Cc4ccc5[nH]c(-c6ccc(N)cc6)nc5c4)ccc3[nH]2)cc1`, the inhibition at 25 µM in data set [1] was 41.4%; in data set [2], 94%. Besides, the MIC90 in data set [3] is > 100 µM; in data set [4], 10.9 µM (≈ 4.69 µg/mL). Also, the CC50 in data set [5] was found to be 2.45 µM.
On the same counts, the results for `CCCCOC(=O)c1ccc(Nc2cc(C)nc3ccc(OC)cc23)cc1` are 24.7%, 96.5%, > 100 µM, 94.9 µM (≈ 34.6 µg/mL) and 6.93 µM.
Take `Cc1cc(Nc2ccc(OCc3ccccc3)cc2)nc2cc(O)ccc12`: the inhibition at 25 µM in data set [1] turned out to be 10%; in data set [2], 99.8%. Moreover, the MIC90 in data set [3] was determined as 50 µM (≈ 17.8 µg/mL); in data set [4], 19.9 µM (≈ 7.09 µg/mL). The CC50 in data set [5] was 8.16 µM.
The matching figures for `CCOc1ccc2nc(C)cc(Nc3ccc(N(C)C)cc3)c2c1`: 15.7%, 78%, 67.4 µM (≈ 21.7 µg/mL), 38.3 µM (≈ 12.3 µg/mL) and 7.38 µM.
The matching figures for `COc1ccc(Nc2cc(C)nc(NCc3ccccc3)n2)cc1`: 22.6%, 95.5%, > 100 µM, 18 µM (≈ 5.77 µg/mL) and 6.9 µM.
For `Cc1cc(Nc2cccc(F)c2)nc(NCc2ccccc2)n1`, the inhibition at 25 µM was determined as 5.92% in data set [1] and 98.3% in data set [2]. Moreover, the MIC90 is > 100 µM in data set [3] and 16.4 µM (≈ 5.06 µg/mL) in data set [4]. For the same compound, the CC50 in data set [5] was determined as 7.18 µM.
As for `COc1ccc(C2NCCc3c2[nH]c2ccccc32)cc1CN1CCN(c2ccc(F)cc2)CC1` (stereo not given), the inhibition at 25 µM was determined as 15.9% in data set [1] and 87.9% in data set [2]. The MIC90 in data set [3] is > 100 µM; in data set [4], 25.9 µM (≈ 12.2 µg/mL). The CC50 in data set [5] came out at 2.28 µM.
On to `O=C1c2ccc3c4c(ccc(c24)C(=O)N1CCCCO)C(=O)N(CCCCO)C3=O`, for which the figures for the inhibition at 25 µM in data set [1] and in data set [2] were 39.6% and 89.3%, respectively. In addition, the MIC90 turned out to be 79.1 µM (≈ 32.5 µg/mL) in data set [3] and 36.5 µM (≈ 15 µg/mL) in data set [4]. Further, in data set [5], the CC50 amounted to 0.904 µM.
Take `OCCNc1nc(Nc2ccc(Cl)c(Cl)c2)nc2ccccc12`: the inhibition at 25 µM amounted to 84.5% in data set [1] and 94% in data set [2]. The MIC90 in data set [3] is 20.2 µM (≈ 7.05 µg/mL); in data set [4] it was 3.59 µM (≈ 1.25 µg/mL). For the same compound, in data set [5], the CC50 came out at 7.18 µM.
As for `Nc1ccc(-c2nc3cc(Oc4ccc(Oc5ccc6[nH]c(-c7ccc(N)cc7)nc6c5)cc4)ccc3[nH]2)cc1`, the inhibition at 25 µM in data set [1] was determined as 11.8%; in data set [2], 98.8%. In addition, the MIC90 was > 100 µM in data set [3] and 19.2 µM (≈ 10.1 µg/mL) in data set [4]. In data set [5], the CC50 was determined as 5.37 µM.
`CCOC(=O)c1cnc2ccc(OC)cc2c1Nc1ccc(N2CCN(C)CC2)cc1`: the inhibition at 25 µM in data set [1] worked out at 31.3%; in data set [2], 78.8%. The MIC90 is > 100 µM in data set [3] and 35.9 µM (≈ 15.1 µg/mL) in data set [4]. The CC50 in data set [5] was 22.8 µM.
With `Cc1cc(N(C)C)nc(Nc2ccc(NC(=O)Nc3ccccc3)cc2)n1`, the inhibition at 25 µM in data set [1] is 3.62%; in data set [2], 98.1%. The MIC90 in data set [3] is > 100 µM; in data set [4], 19.3 µM (≈ 7 µg/mL). In addition, the CC50 in data set [5] came out at 11.2 µM.
The matching figures for `Cc1ccc2cc3c(N)c4c(C)ccc(C)c4nc3nc2c1`: 7.35%, 101%, > 100 µM, 6.06 µM (≈ 1.74 µg/mL) and 2.84 µM.
On the same counts, the results for `CC(C)CCNCC(O)Cn1c2ccccc2c2ccccc21` (stereo not given) are 16.6%, 83.6%, > 100 µM, 22.9 µM (≈ 7.11 µg/mL) and 4.74 µM.
The matching figures for `Cc1ccc(Nc2nc(N)c3ccccc3n2)cc1Cl`: 7.17%, 96.6%, > 100 µM, 24.7 µM (≈ 7.03 µg/mL) and 10.9 µM.
Turning to `CCCCCCn1c(=N)n(CC(O)COc2cccc(C)c2)c2ccccc21` (stereo not given), the inhibition at 25 µM in data set [1] amounted to 31.3%; in data set [2], 98.5%. For the same compound, the MIC90 in data set [3] came out at 27.9 µM (≈ 10.6 µg/mL); in data set [4] it was 9.69 µM (≈ 3.7 µg/mL). The CC50 in data set [5] stood at 3.27 µM.
The matching figures for `COc1ccc(-c2cc(=O)oc3c4c(ccc23)OCN(Cc2ccc(F)cc2)C4)cc1`: 22.3%, 90.5%, > 100 µM, 37.5 µM (≈ 15.7 µg/mL) and 40.5 µM.
As to `Cc1ccc2c(C)nc(Nc3nc(C)cc(-c4ccccc4)n3)nc2c1`, the inhibition at 25 µM in data set [1] was 24.2%; in data set [2] it was 96.8%. The MIC90 came out at 57.9 µM (≈ 19.8 µg/mL) in data set [3] and 18.6 µM (≈ 6.35 µg/mL) in data set [4]. For the same compound, in data set [5], the CC50 was > 100 µM.
The matching figures for `c1ccc(CNc2nc(Nc3ccccc3)nc3ccccc23)cc1`: 21.2%, 96.2%, 39.4 µM (≈ 12.9 µg/mL), 7.46 µM (≈ 2.43 µg/mL) and 4.16 µM.
On the same counts, the results for `OC(CNCc1ccccc1)Cn1c2ccccc2c2ccccc21` (stereo not given) are 14.3%, 90.3%, > 100 µM, 20.1 µM (≈ 6.64 µg/mL) and 5.69 µM.
With `CCOc1ccc2nc(C)cc(Nc3ccc(Br)cc3)c2c1`, the inhibition at 25 µM in data set [1] came to 11.1%; in data set [2], 95.7%. For the same compound, the MIC90 was > 100 µM in data set [3] and 18.7 µM (≈ 6.68 µg/mL) in data set [4]. For the same compound, in data set [5], the CC50 came to 3.95 µM.
On the same counts, the results for `Clc1ccc2c(N3CCCC3)ccnc2c1` are 17.1%, 68.8%, > 100 µM, > 100 µM and 34.9 µM.
On the same counts, the results for `CCCCCn1c(=N)n(CC(O)COc2cccc(C)c2)c2ccccc21` (stereo not given) are 8.77%, 96.5%, > 100 µM, 23 µM (≈ 8.45 µg/mL) and 4.92 µM.

(Values after ChEMBL document CHEMBL2094260, “Malaria Box Tuberculosis Screening Data”.)
